# Paper PMC9841524, “Structure-Based Rational Design of Small α-Helical Peptides with Broad-Spectrum Activity against Multidrug-Resistant Pathogens” (Journal of Medicinal Chemistry, 2022)
# Where two headings read alike, the source gives them in different places. Where no end group is shown, it is not given here.
# Key:
# E. coli (ATCC BAA-2452) = details: Gram-negative, NDM-1; CLSI microdilution, CAMHB, 37 °C, 24 h; highest MIC of three independent experiments in triplicate
# Outline: (§1)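 Inoculum 10^6 CFU/mL in CAMHB against 2-fold peptide series; salt variants used 150 mM NaCl, 4.5 mM KCl, 6 mM NH4Cl, 1 mM MgCl2, 2 mM CaCl2, or 25% FBS.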
# [1] = system: S. pneumoniae (ATCC 700677); details: Gram-positive, multi-drug resistant (penicillin, tetracycline, erythromycin); CAMHB + 2.5% lysed horse blood, 37 °C, 24 h; highest MIC of three independent experiments in triplicate
# Outline: as §1
# E. coli (ATCC 25922) = details: for MIC, E. coli (ATCC 25922): broth microdilution (CLSI), CAMHB, 37 °C, 24 h
# Outline: as §1
# [2] = system: P. aeruginosa (ATCC BAA-1744); details: Gram-negative, resistant strain (marked a; imipenem resistant in Table S3); CLSI microdilution, CAMHB, 37 °C, 24 h; highest MIC of three independent experiments in triplicate
# Outline: as §1
# E. faecalis (ATCC 29212) = details: ATCC 29212, 24 h
# Outline: as §1
# [3] = system: K. pneumonia (ATCC BAA-2470); details: Gram-negative, carbapenem-resistant; CLSI microdilution, CAMHB, 37 °C, 24 h; highest MIC of three independent experiments in triplicate
# Outline: as §1
# [4] = system: P. aeruginosa (ATCC 10145); details: ATCC 10145, 24 h
# Outline: as §1
# [5] = system: Bacillus subtilis (ATCC 6633); details: ATCC 6633, 24 h
# Outline: as §1
# MRSA (ATCC BAA-1556) = details: for MIC, MRSA (ATCC BAA-1556): broth microdilution (CLSI), CAMHB, 37 °C, 24 h
# Outline: as §1
# [6] = system: A. baumannii (ATCC BAA1605); details: Gram-negative, footnote e ciprofloxacin (MDR in Table S3); CLSI microdilution, CAMHB, 37 °C, 24 h; highest MIC of three independent experiments in triplicate
# Outline: as §1
# [7] = system: Bacillus cereus (ATCC 13061); details: ATCC 13061, 24 h
# Outline: as §1
# [8] = system: Klebsiella pneumonia (ATCC 13883); details: Gram-negative; CLSI microdilution, CAMHB, 37 °C, 24 h; highest MIC of three independent experiments in triplicate
# Outline: as §1
# [9] = Relative hydrophobicity as RP-HPLC retention time; type: physicochemical; details: chromatographic, Phenomenex Luna C18 4 μm 150 × 4.6 mm, linear AB gradient 1% acetonitrile/min, 0.3 mL/min, A water 0.1% TFA, B acetonitrile 0.1% TFA, 25 °C
# Description: The purity analysis of the peptides was conducted on a RP-HPLC system (Shimadzu; LC-20ADXR) by using a Phenomenex (Luna) analytical C18 column (4 μm, 150 × 4.6 mm). The mass of the purified peptides was determined in the positive-ion mode using Q-TOF LC/MS (Compass Hystar 4.1, Bruker, USA). The purity (>95%) and mass data of all the synthesized peptides are provided in the Supporting Information.
# 8. Comparative Hydrophobicity analysis
# The purity of all synthesized peptides was determined using reverse phase analytical HPLC
# (Shimadzu; LC-20ADXR). Below mentioned are the conditions used to conduct the purity
# Column: Phenomenex (Luna), 4 um, C18, 150 × 4.6 mm
# Mobile Phase: Buffer A-Water containing 0.1% TFA,
# Buffer B-Acetonitrile containing 0.1% TFA
# Figure S52. HPLC chromatogram of 6a.
# (1 picture or pasted object on this page, not shown here)
# S. aureus (ATCC 29213) = test: MIC, standard microtiter dilution (CLSI); type: cell-based; details: broth microdilution (CLSI), CAMHB, 37 °C, 24 h
# Outline: as §1
# [10] = 10^6 CFU/mL, highest MIC of three independent experiments in triplicate
# [11] = media with 4.5 mM KCl, three independent experiments in triplicate
# [12] = media with 6 mM NH4Cl, three independent experiments in triplicate
substance,measurement,setting,value
KWLKKWLKWWKK-NH2 [8b],"MIC, E. coli (ATCC BAA-2452)",E. coli (ATCC BAA-2452),6.2 µg/mL
same,"MIC, S. pneumoniae (ATCC 700677)",[1],12.5 µg/mL
same,"MIC, E. coli (ATCC 25922), CaCl2","E. coli (ATCC 25922); ATCC 25922, 24 h",25 µg/mL
same,"MIC, E. coli (ATCC 25922), Control","E. coli (ATCC 25922); ATCC 25922, 24 h",6.2 µg/mL
same,"MIC, E. coli (ATCC 25922), FBS (25%)","E. coli (ATCC 25922); ATCC 25922, 24 h",25 µg/mL
same,"MIC, E. coli (ATCC 25922), MgCl2","E. coli (ATCC 25922); ATCC 25922, 24 h",25 µg/mL
same,"MIC, E. coli (ATCC 25922), NaCl","E. coli (ATCC 25922); ATCC 25922, 24 h",25 µg/mL
same,"MIC, E. coli (ATCC 25922)",E. coli (ATCC 25922); [10],6.2 µg/mL
same,"MIC, E. coli (ATCC 25922), KCl",E. coli (ATCC 25922); [11],12.5 µg/mL
same,"MIC, E. coli (ATCC 25922), NH4Cl",E. coli (ATCC 25922); [12],12.5 µg/mL
same,"MIC, E. coli (ATCC 25922)",E. coli (ATCC 25922); value in parentheses (μM),3.53 µM
same,"MIC, P. aeruginosa (ATCC BAA-1744)",[2],6.2 µg/mL
same,"MIC, E. faecalis (ATCC 29212)",E. faecalis (ATCC 29212),6.2 µg/mL
same,"MIC, K. pneumonia (ATCC BAA-2470)",[3],12.5 µg/mL
same,"MIC, P. aeruginosa (ATCC 10145)",[4],6.2 µg/mL
same,"MIC, Bacillus subtilis (ATCC 6633)",[5],3.1 µg/mL
same,"MIC, MRSA (ATCC BAA-1556), Control","MRSA (ATCC BAA-1556); MH media without salt ions or serum, three independent experiments in triplicate",3.1 µg/mL
same,"MIC, MRSA (ATCC BAA-1556)",MRSA (ATCC BAA-1556); [10],3.1 µg/mL
same,"MIC, MRSA (ATCC BAA-1556), MgCl2","MRSA (ATCC BAA-1556); media with 1 mM MgCl2, three independent experiments in triplicate",6.2 µg/mL
same,"MIC, MRSA (ATCC BAA-1556), CaCl2","MRSA (ATCC BAA-1556); media with 2 mM CaCl2, three independent experiments in triplicate",6.2 µg/mL
same,"MIC, MRSA (ATCC BAA-1556), KCl",MRSA (ATCC BAA-1556); [11],6.2 µg/mL
same,"MIC, MRSA (ATCC BAA-1556), NH4Cl",MRSA (ATCC BAA-1556); [12],6.2 µg/mL
same,"MIC, MRSA (ATCC BAA-1556), NaCl","MRSA (ATCC BAA-1556); media with 150 mM NaCl, three independent experiments in triplicate",12.5 µg/mL
same,"MIC, MRSA (ATCC BAA-1556), FBS (25%)","MRSA (ATCC BAA-1556); media with 25% fetal bovine serum, three independent experiments in triplicate",12.5 µg/mL
same,"MIC, MRSA (ATCC BAA-1556)",MRSA (ATCC BAA-1556); value in parentheses (μM),1.76 µM
same,"MIC, A. baumannii (ATCC BAA1605)",[6],3.1 µg/mL
same,"MIC, Bacillus cereus (ATCC 13061)",[7],3.1 µg/mL
same,"MIC, Klebsiella pneumonia (ATCC 13883)",[8],12.5 µg/mL
same,"tR, RP-HPLC retention time (measure of overall hydrophobicity)",[9],33.41 min
same,"MIC, S. aureus (ATCC 29213)",S. aureus (ATCC 29213); [10],3.1 µg/mL
same,"MIC, S. aureus (ATCC 29213)",S. aureus (ATCC 29213); value in parentheses (μM),1.76 µM
